Measured values taken from ChEMBL document CHEMBL3739369, “Identification of Elaiophylin Skeletal Variants from the Indonesian Streptomyces sp. ICBB 9297” (2015).
In brackets after ≈: the same amount, converted by molar mass.

How the values were obtained:
Format in all cases: functional
[1] = system: Mycolicibacterium smegmatis; test: Antimicrobial activity against Mycobacterium smegmatis ATCC 14468 for 17 to 48 hrs by MTT assay
[2] = system: Staphylococcus aureus; test: Antimicrobial activity against Staphylococcus aureus ATCC 12600 for 17 to 48 hrs by MTT assay
[3] = system: Bacillus subtilis; test: Antimicrobial activity against Bacillus subtilis ATCC 6051 for 17 to 48 hrs by MTT assay
[4] = system: Pseudomonas aeruginosa; test: Antimicrobial activity against Pseudomonas aeruginosa ATCC 9721 for 17 to 48 hrs by MTT assay
[5] = system: Escherichia coli; test: Antimicrobial activity against Escherichia coli ATCC 11775 for 17 to 48 hrs by MTT assay

| SMILES | MIC [1] [mg/L] | MIC [2] [mg/L] | MIC [3] [mg/L] | MIC [4] [mg/L] | MIC [5] [mg/L] |
| --- | --- | --- | --- | --- | --- |
| CN[C@@H]1[C@@H](O[C@H]2O[C@H](CO)[C@@H](N)[C@H](O)[C@H]2O)O[C@H]2C[C@@H](N)[C@@H](O[C@H]3[C@H](O)[C@@H](O)[C@H](N)C[C@@H]3N)O[C@@H]2[C@@H]1O | 0.39 (≈ 0.723 µM) |  |  |  |  |
| CC[C@@H]1[C@@H](C)O[C@@](OC)([C@@H](C)[C@H](O)[C@H](C)[C@H]2OC(=O)/C=C/C=C/[C@H](C)[C@@H]([C@@H](C)[C@@H](O)[C@H](C)[C@@]3(OC)C[C@@H](O[C@H]4C[C@H](O)[C@H](O)[C@H](C)O4)[C@H](CC)[C@@H](C)O3)OC(=O)/C(C)=C/C=C/[C@@H]2C)C[C@H]1O[C@H]1C[C@H](O)[C@H](O)[C@H](C)O1 | 6.25 (≈ 5.86 µM) | 1.56 (≈ 1.46 µM) | > 100 | > 100 | > 100 |
| CC[C@@H]1[C@@H](C)O[C@@](O)([C@@H](C)[C@H](O)[C@H](C)[C@H]2OC(=O)/C=C/C=C/[C@H](C)[C@@H]([C@@H](C)[C@@H](O)[C@H](C)[C@@]3(O)C[C@@H](O[C@H]4C[C@H](O)[C@H](O)[C@H](C)O4)[C@H](CC)[C@@H](C)O3)OC(=O)/C=C/C=C/[C@@H]2C)C[C@H]1O[C@H]1C[C@H](O)[C@H](O)[C@H](C)O1 | > 100 | 0.78 (≈ 0.761 µM) | > 100 | > 100 | > 100 |
| CC1(C)S[C@@H]2[C@H](NC(=O)[C@H](N)c3ccccc3)C(=O)N2[C@H]1C(=O)O [AMPICILLIN] | > 100 | 0.78 (≈ 2.23 µM) | 0.78 (≈ 2.23 µM) | 1.56 (≈ 4.46 µM) | 6.25 (≈ 17.9 µM) |

Other lines, results leading:

| MIC [1] [mg/L] | MIC [2] [mg/L] | MIC [3] [mg/L] | MIC [4] [mg/L] | MIC [5] [mg/L] | SMILES |
| --- | --- | --- | --- | --- | --- |
| > 100 | 1.56 (≈ 1.5 µM) | > 100 | > 100 | > 100 | CC[C@@H]1[C@@H](C)O[C@@](OC)([C@@H](C)[C@H](O)[C@H](C)[C@H]2OC(=O)/C=C/C=C/[C@H](C)[C@@H]([C@@H](C)[C@@H](O)[C@H](C)[C@@]3(O)C[C@@H](O[C@H]4C[C@H](O)[C@H](O)[C@H](C)O4)[C@H](CC)[C@@H](C)O3)OC(=O)/C=C/C=C/[C@@H]2C)C[C@H]1O[C@H]1C[C@H](O)[C@H](O)[C@H](C)O1 |
| > 100 | 3.13 (≈ 2.89 µM) | > 100 | > 100 | > 100 | CC[C@@H]1[C@@H](C)O[C@@](OC)([C@@H](C)[C@H](O)[C@H](C)[C@H]2OC(=O)/C(C)=C/C=C/[C@H](C)[C@@H]([C@@H](C)[C@@H](O)[C@H](C)[C@@]3(OC)C[C@@H](O[C@H]4C[C@H](O)[C@H](O)[C@H](C)O4)[C@H](CC)[C@@H](C)O3)OC(=O)/C(C)=C/C=C/[C@@H]2C)C[C@H]1O[C@H]1C[C@H](O)[C@H](O)[C@H](C)O1 |
| 6.25 (≈ 6.01 µM) | 0.78 (≈ 0.751 µM) | > 100 | > 100 | > 100 | CC[C@@H]1[C@@H](C)O[C@@](O)([C@@H](C)[C@H](O)[C@H](C)[C@H]2OC(=O)/C=C/C=C/[C@H](C)[C@@H]([C@@H](C)[C@@H](O)[C@H](C)[C@@]3(O)C[C@@H](O[C@H]4C[C@H](O)[C@H](O)[C@H](C)O4)[C@H](CC)[C@@H](C)O3)OC(=O)/C(C)=C/C=C/[C@@H]2C)C[C@H]1O[C@H]1C[C@H](O)[C@H](O)[C@H](C)O1 |
| > 100 | 1.56 (≈ 1.48 µM) | > 100 | > 100 | > 100 | CC[C@@H]1[C@@H](C)O[C@@](OC)([C@@H](C)[C@H](O)[C@H](C)[C@H]2OC(=O)/C=C/C=C/[C@H](C)[C@@H]([C@@H](C)[C@@H](O)[C@H](C)[C@@]3(OC)C[C@@H](O[C@H]4C[C@H](O)[C@H](O)[C@H](C)O4)[C@H](CC)[C@@H](C)O3)OC(=O)/C=C/C=C/[C@@H]2C)C[C@H]1O[C@H]1C[C@H](O)[C@H](O)[C@H](C)O1 |
